# Laboratory results as given in patent US8729048B2, “Methods and materials for assessing responsiveness to PARP inhibitors and platinating agents” (Mayo Foundation for Medical Education and Research, priority 2011, dated 2014).
# What was measured:
# [1] = test system: BRCA2-positive PEO4 cells; experiment: Clonogenic assay, PEO4; assay type: cell-based; details: 72 hours
# Description: FIG. 5. NHEJ is a major contributor to PARP inhibitor effects in BRCA2-deficient cells. (A) Western blots showing knockdown of Ku80 in PEO1 and PEO4 cells. (B) Clonogenic survival of PEO1 and PEO4 cells from (A), which were treated with the indicated ABT-888 concentration for 72 hours, washed, and allowed to form colonies. (C) Western blots following treatment with siRNA targeting luciferase (control), Ku80, PARP1, or both Ku80 and PARP1. (D) Clonogenic viability of PEO 1 and PEO4 cells from (C). Following knockdown, cells were plated onto triplicate plates and allowed to form colonies. (E) Clonogenic survival of PEO1 cells following Artemis knockdown. After treatment with the indicated siRNA, plates were treated with indicated concentration of ABT-888 for 72 hours, washed, and allowed to form colonies. Inset, Western blots showing knockdown using luciferase (control) or Artemis siRNAs in PEO1 cells. (F) Clonogenic survival of PEO1 and PEO4 cells treated for 72 hours with ABT-888 in combination with diluent or 500 nM DNA-PKi. All results are reported as means of triplicate plates±SEM, and are representative of 3 independent experiments.
# Colony formation assays were performed on siRNA-transfected PEO1 and PEO4 cells 48 hours after the second transfection. Cells were trypsinized and plated at 750 cells/plate in triplicate 60-mm dishes containing medium A, allowed to grow 10-14 days, and stained with Coomassie Brilliant Blue. Colonies containing ≧50 cells were scored manually. To assess methyl methanesulfonate (MMS) sensitivity, PEO1 or PEO4 cells were incubated for 48 hours after the second siRNA treatment, plated onto 60-mm dishes, allowed to adhere for 4 hours, exposed to the indicated concentration of MMS (Sigma-Aldrich) for 1 hour, washed with sterile RPMI 1640, and allowed to grow into colonies in medium A. For drug treatment, cells (without siRNA) were allowed to adhere for 4-6 hours, then treated with the indicated concentrations of ABT-888 and/or AZ12594248 for 72 hours. […]
# [2] = test system: DNA-PKcs-reconstituted M059J cells; experiment: Clonogenic assay, M059J+DNA-PKcs; assay type: cell-based; details: BRCA1 shRNA
# Description: FIG. 6. […] (A) BRCA1-deficient HCC1937 and BRCA1-reconstituted HCC1937/BRCA1 cells were continuously exposed to ABT-888 in the presence or absence of 125 nM DNA-PKi and assayed for clonogenic survival. Inset, Western blots of cell lysates from HCC1937 and HCC1937/BRCA1. (B) Western blots of M059J and reconstituted M059J+DNA-PKcs lines showing the restoration of DNA-PK expression and the shRNA-mediated knockdown of BRCA1. (C) Clonogenic survival of shRNA transfected M059J/M059J+DNA-PKcs lines treated with ABT-888 for 72 hours. (D) Clonogenic survival of ATM-deficient GM16666 or ATM-reconstituted GM16667 fibroblasts. Cells were exposed to ABT-888 for 48 hours in the presence or absence of 250 nM DNA-PKi, washed, and allowed to form colonies. Inset, Western blots of lysates from GM16666 and GM16667 fibroblasts. […] Results are representative of 3 independent experiments.
# All siRNA oligonucleotides were purchased from Ambion, Inc. (Austin, Tex.). Sequences, with references, are provided below. PEO1 and PEO4 cells were transfected with 150 picomoles of siRNA using the HiPerfect lipid transfection reagent (Qiagen; Valencia, Calif.). […]
# Colony formation assays were performed on siRNA-transfected PEO1 and PEO4 cells 48 hours after the second transfection. […] Colonies containing ≧50 cells were scored manually. […]
smiles,measurement,setting,value
C[C@]1(c2nc3c(C(N)=O)cccc3[nH]2)CCCN1 [ABT-888],clonogenic survival,[1],resistant to the effects of ABT-888
same,clonogenic survival with ABT-888 after Ku80 knockdown,[1]; Ku80 siRNA,unaffected by Ku80 siRNA
same,clonogenic sensitivity to ABT-888 after BRCA1 knockdown,[2],sensitized
